Experimental data: PubChem BioAssay AID2060498 (Molecular Pharmacology Branch, DTP, NCI, 2025)
Several values for one entry are separate records, joined by “and”; a condition that tells them apart may be missing. Equal entries are not always repeated.

System: 171881-019-R-J1-PDC tumor spheroids, viability
Assay: Anticancer human tumor 171881-019-R-J1-PDC patient-derived invasive breast carcinoma cell line growth inhibition [GQUAD]
Details: spheroids with HUVEC and MSC; for viability, T/C: stronger effect = lower value
From the text: DNA G-quadruplex Stabilizer Agents in Combinations in Complex Spheroids
A high-throughput screen of multi-cell type tumor spheroids was designed to identify active combinations of DNA G-quadruplex stabilizer agents and targeted small molecules. Complex spheroids include a stromal component modeled by human endothelial cells (HUVEC) and fibroblasts modeled by human mesenchymal stem cells (MSCs). The concentration ranges selected for each drug and investigational agent were based upon clinically achievable concentrations if the clinical Cmax of the agent was known.
Compounds. The drugs and investigational agents: pidnarulex (CX-5461; NSC782164), APTO-253 (NSC789042), BRACO-19 (NSC847499), peposertib (NSC802822), ceralasertib (NSC780249), elimusertib (NSC800525), camonsertib (NSC841442), AZD-1390 (NSC803789), olaparib (NSC753686), talazoparib (NSC767125), ART-558 (NSC835418), sotorasib (NSC818433), MRTX-1133 (NSC836407), SN-38 (NSC673596), topotecan (NSC609699), etoposide (NSC141540), doxorubicin (NSC123127), gemcitabine (NSC613327), 5-fluorouracil (NSC19893), paclitaxel (NSC125973), vemurafenib (NSC761431), panobinostat (NSC761190), R-306465 (JNJ-16241199; NSC773264), adavosertib (NSC754352), TP-3654 (NSC805149), carboplatin (NSC241240), KSQ-4279 (NSC840948), and staurosporine (NSC755774) were obtained from the National Cancer Institute (NCI) Developmental Therapeutics Program Chemical Repository (34). The FDA-approved anticancer drug set is available from the NCI Developmental Therapeutics Program. […] The stock solutions were prepared in dimethyl sulfoxide (DMSO, Sigma-Aldrich, St. Louis, MO, cat. D2650) at 800-fold the tested concentration and stored at -70 degrees C prior to their use. All drugs and investigational agents were tested over a range starting from a high concentration at or near the clinical Cmax and decreasing in half-log increments. If the clinical Cmax for an agent had not been determined, the highest concentration tested was 10 microM.
2.3 Cell Culture. All cells were maintained in an incubator at 37 degrees C and 5% CO2 with 95% humidity. The PDC lines were cultured according to standard operating procedures established by the NCI PDMR. All PDCs were thawed and cultured in Matrigel-coated flasks prepared with a working solution of 1X Ham's F-12 nutrient mix, without supplementation (Invitrogen, cat. 11765054), 100 U/mL penicillin-streptomycin (Invitrogen, cat. 15140122), and 2.5% Matrigel (Corning Inc., cat. 354248) for the first three passages. The 857933-349-R-J2-PDC line was cultured in 6C/Colon 1B media, which includes advanced DMEM/F-12 (Thermo Fisher Scientific, cat. 12634028), 10 mM HEPES (Thermo Fisher Scientific, cat. 15630080), 1X GlutaMAX supplement (Thermo Fisher Scientific, cat. 35050061), 0.1 mg/mL primocin (InvivoGen, cat. ant-pm-2), 10% defined fetal bovine serum, heat inactivated (HyClone Laboratories Inc., cat. SH30070.03HI), 50% L-WRN conditioned media (ATCC, cat. CRL-3276), 1.25 mM N-Acetyl-L-cysteine (Sigma-Aldrich, cat. A9165), 10 mM nicotinamide (Sigma-Aldrich, cat. N0636), 1X B-27 supplement (Thermo Fisher Scientific, cat. 17504044), 1X N-2 supplement (Thermo Fisher Scientific, cat. 17502048), 10 microM Y-27632 dihydrochloride (Tocris Bioscience, cat. 1254), and 50 ng/mL human EGF recombinant protein (Thermo Fisher Scientific, cat. PHG0311). The 485176-168-R4-J1-PDC line was cultured in Panc media, which includes all 6C/Colon 1B media components plus 100 ng/mL human FGF-10 (Thermo Fisher Scientific, cat. 100-26), 500 nM SB-431542 (Selleckchem, cat. S1067), and gastrin (Tocris, cat. 3006).
[…]

[1] = curve of first compound, second compound 0.0316 µM
[2] = curve of first compound, second compound 0.1 µM
[3] = curve of first compound, second compound 0.316 µM
[4] = curve of first compound, second compound 1 µM
[5] = curve of first compound, second compound 3.16 µM
[6] = curve of first compound, second compound 10 µM
[7] = second compound 0.0316 µM, first compound 0.0316 µM
[8] = second compound 0.0316 µM, first compound 0.1 µM
[9] = second compound 0.0316 µM, first compound 0.316 µM
[10] = second compound 0.0316 µM, first compound 1 µM
[11] = second compound 0.0316 µM, first compound 3.16 µM
[12] = second compound 0.0316 µM, first compound 10 µM
[13] = second compound 0.1 µM, first compound 0.0316 µM
[14] = second compound 0.1 µM, first compound 0.1 µM
[15] = second compound 0.1 µM, first compound 0.316 µM
[16] = second compound 0.1 µM, first compound 1 µM
[17] = second compound 0.1 µM, first compound 3.16 µM
[18] = second compound 0.1 µM, first compound 10 µM
[19] = second compound 0.316 µM, first compound 0.0316 µM
[20] = second compound 0.316 µM, first compound 0.1 µM
[21] = second compound 0.316 µM, first compound 0.316 µM
[22] = second compound 0.316 µM, first compound 1 µM
[23] = second compound 0.316 µM, first compound 3.16 µM
[24] = second compound 0.316 µM, first compound 10 µM
[25] = second compound 1 µM, first compound 0.0316 µM
[26] = second compound 1 µM, first compound 0.1 µM
[27] = second compound 1 µM, first compound 0.316 µM
[28] = second compound 1 µM, first compound 1 µM
[29] = second compound 1 µM, first compound 3.16 µM
[30] = second compound 1 µM, first compound 10 µM
[31] = second compound 3.16 µM, first compound 0.0316 µM
[32] = second compound 3.16 µM, first compound 0.1 µM
[33] = second compound 3.16 µM, first compound 0.316 µM
[34] = second compound 3.16 µM, first compound 1 µM
[35] = second compound 3.16 µM, first compound 3.16 µM
[36] = second compound 3.16 µM, first compound 10 µM
[37] = second compound 10 µM, first compound 0.0316 µM
[38] = second compound 10 µM, first compound 0.1 µM
[39] = second compound 10 µM, first compound 0.316 µM
[40] = second compound 10 µM, first compound 1 µM
[41] = second compound 10 µM, first compound 3.16 µM
[42] = second compound 10 µM, first compound 10 µM
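Note: spheroids exposed to compounds for 7 days.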
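Throughout, for viability, T/C: 100% = DMSO vehicle control viability.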

`CC(C)(O)C1CCC(Nc2ccc3ncc(-c4cccc(C(F)(F)F)c4)n3n2)CC1` (stereo unspecified) + CN(C)c1ccc(Nc2c3ccc(NC(=O)CCN4CCCC4)cc3nc3cc(NC(=O)CCN4CCCC4)ccc23)cc1 showed an IC50 [1] of 1860 nM, an IC50 [2] of 1840 nM and an IC50 [3] of under 31.6 nM. For the same compound, the IC50 [4] was under 31.6 nM, the IC50 [5] was under 31.6 nM and the IC50 [6] was under 31.6 nM. It also gave a viability, T/C [7] of 99.9%, a viability, T/C [8] of 103% and a viability, T/C [9] of 102%. It also gave a viability, T/C [10] of 73.8%, a viability, T/C [11] of 30% and a viability, T/C [12] of 25.6%. The viability, T/C [13] was 94.5%, the viability, T/C [14] was 99.5% and the viability, T/C [15] was 101%. It also gave a viability, T/C [16] of 77.1%, a viability, T/C [17] of 24.3% and a viability, T/C [18] of 27.6%. The viability, T/C [19] was 43.7%, the viability, T/C [20] was 47.2% and the viability, T/C [21] was 39.3%. It also gave a viability, T/C [22] of 22.2%, a viability, T/C [23] of 9.07% and a viability, T/C [24] of 6.72%. For the same compound, the viability, T/C [25] was 3.24%, the viability, T/C [26] was 2.74% and the viability, T/C [27] was 3.28%. For the same compound, the viability, T/C [28] was 1%, the viability, T/C [29] was 0.4% and the viability, T/C [30] was 0.21%. For the same compound, the viability, T/C [31] was 0.19%, the viability, T/C [32] was 0.18% and the viability, T/C [33] was 0.29%. The viability, T/C [34] was 0.13%, the viability, T/C [35] was 0.43% and the viability, T/C [36] was 0.14%. The viability, T/C [37] was 0.15%, the viability, T/C [38] was 0.47% and the viability, T/C [39] was 0.23%. The viability, T/C [40] was 0.13%, the viability, T/C [41] was 0.32% and the viability, T/C [42] was 0.17%.
Work on `COc1ncnc(C2CC2)c1-c1ncc2cnn(Cc3ccc(-c4nc(C(F)(F)F)cn4C(C)C)cc3)c2n1` + Cc1cnc(CNC(=O)c2c(=O)c3ccc(N4CCCN(C)CC4)nc3n3c2sc2ccccc23)cn1 yielded an IC50 [1] of over 10000 nM, an IC50 [2] of over 10000 nM and an IC50 [3] of over 10000 nM. It also gave an IC50 [4] of over 10000 nM, an IC50 [5] of over 10000 nM and an IC50 [6] of over 10000 nM. It also gave a viability, T/C [7] of 93.6%, a viability, T/C [8] of 85.3% and a viability, T/C [9] of 82.4%. It also gave a viability, T/C [10] of 85.4%, a viability, T/C [11] of 92% and a viability, T/C [12] of 87%. The viability, T/C [13] was 76.2%, the viability, T/C [14] was 83% and the viability, T/C [15] was 70%. It also gave a viability, T/C [16] of 81.7%, a viability, T/C [17] of 73.9% and a viability, T/C [18] of 71.2%. For the same compound, the viability, T/C [19] was 72.1%, the viability, T/C [20] was 74.3% and the viability, T/C [21] was 69.5%. For the same compound, the viability, T/C [22] was 65.8%, the viability, T/C [23] was 71.1% and the viability, T/C [24] was 63.3%. It also gave a viability, T/C [25] of 69%, a viability, T/C [26] of 61.3% and a viability, T/C [27] of 62.3%. It also gave a viability, T/C [28] of 62.6%, a viability, T/C [29] of 63.5% and a viability, T/C [30] of 66.2%. It also gave a viability, T/C [31] of 67.3%, a viability, T/C [32] of 57.6% and a viability, T/C [33] of 61.2%. The viability, T/C [34] was 56.4%, the viability, T/C [35] was 62% and the viability, T/C [36] was 66.2%. For the same compound, the viability, T/C [37] was 53.4%, the viability, T/C [38] was 56.9% and the viability, T/C [39] was 54.2%. The viability, T/C [40] was 57.3%, the viability, T/C [41] was 63.1% and the viability, T/C [42] was 56.3%.
In the case of `Cc1[nH]c2ccccc2c1CCNCc1ccc(/C=C/C(=O)NO)cc1`, the viability, T/C (compound 0.000999 µM) is reported as 93.1% and 97% and 99.3%, the viability, T/C (compound 0.00316 µM) is reported as 90.7% and 88% and 95.2% and the viability, T/C (compound 0.00999 µM) is reported as 91.3% and 87.6% and 84.2%. The viability, T/C (compound 0.0316 µM) was 83.3% and 83.6% and 75.6%, the viability, T/C (compound 0.0999 µM) was 21.4% and 22.6% and 29% and the viability, T/C (compound 0.316 µM) was 0.4% and 0.47% and 1.04%. The IC50 (curve of compound) was 58.7 nM and 59.5 nM and 58.2 nM.
